Measured values from patent publication US9289398B2, “Methods for the production of functional protein from DNA having a nonsense mutation and the treatment of disorders associated therewith” (PTC Therapeutics, Inc., priority 2006, dated 2016).

Legend:
Type in all cases: in vivo, human
[1] = Pulmonary function tests (FEV1, FVC), CF Phase 2 study
Procedure: Pulmonary function tests, including FEV1, FVC, and MEF25-75, are measured using standard spirometry procedures. Assessments of pulmonary function (including MEF25-75, FVC, and, particularly, FEV1) have been acknowledged as definitive clinical endpoints in patients with CF (Food and Drug Administration, 62nd Anti-Infective Drugs Advisory Committee. Discussion of NDA for tobramycin solution for inhalation (Tobi®) for the management of cystic fibrosis patients. November, 1997; Tiddens, 2002, Pediatr. Pulmonol. 34(3): 228-31). […] Pulmonary function testing is simple to administer (even in patients as young as 7 years of age), and uses standardized equipment and techniques that are widely available. Interpretation is performed using well-established normative equations that account for patient age, height, and gender.
Clinical endpoints were evaluated using the procedures set forth above. TEPD measurements were made prior to treatment and on days 14 and 28 of Cycle 1 and Cycle 2. Nasal mucosal curettage was collected from each nostril of each patient prior to treatment and on days 14 and 28 of Cycle 1 and Cycle 2. Pulmonary tests, including FEV1, FVC and MEF25-75, were measured prior to treatment, on day −1 of Cycle 2, on day 13 or 14 of Cycle 1 and day 13 or 14 of Cycle 2 in the study being conducted in Israel and the same parameters were measured prior to treatment and on day 13 or 14 of Cycle 2 in the study being conducted in the United States.
Statistically significant results and positive trends for secondary endpoints were also observed. In particular, although the trials were not been powered to detect statistical significant changes in secondary endpoints, statistically significant improvements from study entry to the end of the higher-dose treatment cycle in the patients' mean FEV1, FVC and weight were observed.

[2] = Safety and compliance, additional DMD Phase 2 study (26 boys)
Procedure: An additional Phase 2 study was carried out as follows to evaluate 3-[5-(2-fluoro-phenyl)-[1,2,4]oxadiazol-3-yl]-benzoic acid safety, compliance, PK, effects on full-length muscle dystrophin protein expression, and clinical activity in patients with nonsense-mutation-mediated DMD.
3-[5-(2-fluoro-phenyl)-[1,2,4]oxadiazol-3-yl]-benzoic acid was administered orally for 28 days at dose levels of 4, 4, 8 mg/kg (low dose); 10, 10, 20 mg/kg (mid dose); and 20, 20, 40 mg/kg (high dose) after breakfast, lunch, and dinner, respectively. 26 boys (ages: 5-13 years; stop codons: 15 UGA, 6 UAG, 5 UAA; baseline serum CK: 8,645-49,500 IU; steroid use: 19/26) completed 3-[5-(2-fluoro-phenyl)-[1,2,4]oxadiazol-3-yl]-benzoic acid at the low (n=6) or mid (n=20) dose levels. […] Compliance was >98% for both dose levels. Day 1 and Day 28 PK indicate stable plasma exposures over time; however, exposures were lower than in 3-[5-(2-fluoro-phenyl)-[1,2,4]oxadiazol-3-yl]-benzoic acid-treated healthy adult volunteers and cystic fibrosis patients. […] Relative to baseline, post-treatment increases in in vivo dystrophin expression occurred in 4/6 (67%) (90% CI 27-94%) and 10/20 (50%) (90% C1-30-70%) boys at low and mid doses, respectively.

[3] = tested on: serum CK; test: Serum CK levels, DMD Phase 2; settings: boys with nonsense-mutation-mediated DMD, 28 days
Procedure: Serum CK activity is assessed using a commercially available NADH-linked kinetic assay (Diagnostic Chemicals Ltd., Oxford, Conn.). Serum CK levels are measured prior to treatment, on day 1 (prior to first dose), day 7, day 14, day 21, and day 27 during the treatment period, and on day 42 and day 56 after treatment. Serum CK is increased in Duchenne muscular dystrophy and therefore is a readily measurable diagnostic marker for the disease and may serve as a potential biomarker for the pharmacological activity of the drug (Mendell et al., 1989, New Eng. J. Med. 320(24):1592-1597).
3-[5-(2-fluoro-phenyl)-[1,2,4]oxadiazol-3-yl]-benzoic acid was administered orally for 28 days at dose levels of 4, 4, 8 mg/kg (low dose); 10, 10, 20 mg/kg (mid dose); and 20, 20, 40 mg/kg (high dose) after breakfast, lunch, and dinner, respectively. 26 boys (ages: 5-13 years; stop codons: 15 UGA, 6 UAG, 5 UAA; baseline serum CK: 8,645-49,500 IU; steroid use: 19/26) completed 3-[5-(2-fluoro-phenyl)-[1,2,4]oxadiazol-3-yl]-benzoic acid at the low (n=6) or mid (n=20) dose levels. […] Compliance was >98% for both dose levels. Day 1 and Day 28 PK indicate stable plasma exposures over time; however, exposures were lower than in 3-[5-(2-fluoro-phenyl)-[1,2,4]oxadiazol-3-yl]-benzoic acid-treated healthy adult volunteers and cystic fibrosis patients. […]

[4] = Patient-reported changes in cystic fibrosis symptoms, CF Phase 2 interim analysis; settings: of 15 CF patients in interim analysis
Source text: In addition, although changes in patient's symptoms were not formally measured through the use of a quality-of-life questionnaire, trial investigators were requested to ask about changes in patients' cystic fibrosis symptoms. In the 15 patients included in the interim analysis, 6 reported general improvements in well being, 6 reported decrease in cough and 10 reported decreased mucus thickness and easier clearing of mucus.

[5] = study entry to end of higher dose treatment, percentage of normal

Structure (SMILES): O=C(O)c1cccc(-c2noc(-c3ccccc3F)n2)c1 [3-[5-(2-fluoro-phenyl)-[1,2,4]oxadiazol-3-yl]-benzoic acid]
- Mean FEV1, End of Higher Dose Treatment ([1]; percentage of normal for gender, age and height, study entry 65.8%, one patient not included): 69.1%
- Mean FVC, End of Higher Dose Treatment ([1]; percentage of normal for gender, age and height, study entry 80.2%, one patient not included): 85.1%
- Mean FEV1, Change [1, 5]: 3.3%
- Mean FVC, Change [1, 5]: 4.9%
- Severity of adverse events and laboratory abnormalities ([2]; 26 boys, low (n=6) or mid (n=20) dose, 28 days oral): mild-moderate
- Dose relation of adverse events and laboratory abnormalities ([2]; low 4, 4, 8 mg/kg versus mid 10, 10, 20 mg/kg): no dose-related changes in frequency or severity
- Serum CK levels during administration [3]: decreased significantly
- Patients reporting decrease in cough [4]: 6
- Patients reporting decreased mucus thickness and easier clearing of mucus [4]: 10
- Patients reporting general improvements in well being [4]: 6
